# Earlier results in patent publication US20210196697A1, “COMBINATION THERAPIES FOR TREATING BIPOLAR DISORDER AND ADHD, AND METHODS FOR USING THE SAME” (PsychNostics, LLC, priority 2017, published 2021).
# Columns and labels:
# [1] = tested on: SK-N-SH Neuroblastoma Cells; settings: addition of carbachol to [3H]cytidine-prelabeled cells
smiles,measurement,setting,value
"[Li] [Li, lithium]",therapeutic level,lithium in BD patients,around 1.2 mM
same,toxic level,lithium in BD patients,about 2 mM
"COC(=O)C(c1ccccc1)C1CCCCN1 (centres unmarked) [MPH, methylphenidate]",effect on MPR,ADHD patients,reduces the MPR in a dose dependant manner
C[N+](C)(C)CCOC(N)=O [carbachol],accumulation of labeled CDP-DAG,[1],four to fivefold increase
CN1CCN(C2=Nc3cc(Cl)ccc3Nc3ccccc32)CC1 [clozapine],therapeutic level / therapeutic reference range,serum / blood plasma,200 to 1000 ng/mL
